Measured values: patent US20020099050A1, “Drugs that enhance synaptic responses mediated by AMPA receptors” (priority 1993, published 2002)
Values belong to the compound of their own block, whether it stands above or below them.

Assays:
AMPA receptor [1] = settings: cited from earlier work
AMPA receptors [2] = target: T1, AMPA receptors; experiment: field EPSPs in field CA1 of in vitro slices of rat hippocampus; format: cell-based; settings: for EC50: estimated from log dose/response curves, maximal response of 85% increase assumed where limited solubility prevented a maximum, read-out: EC50 (percent increase in field EPSP amplitude)
T1 construct: EC50 (percent increase in field EPSP amplitude); other: estimated from log dose/response curves; maximal response of 85; effect on field EPSP amplitude and duration; other: 1.5 mM, 15 minute infusion; enhancement of the area of the field EPSP; other: 100 μM; mean and S.D. of 4
Description: The physiological effects of invention compounds can be tested in vitro with slices of rat hippocampus as follows. Excitatory responses (field EPSPs) are measured in hippocampal slices which are maintained in a recording chamber continuously perfused with artificial cerebrospinal fluid (ACSF).
To conduct these tests, the hippocampus was removed from anesthetized, 2 month old Sprague-Dawley rats and in vitro slices (400 micrometers thick) were prepared and maintained in an interface chamber at 35° C. using conventional techniques [see, for example, Dunwiddie and Lynch, J. Physiol. Vol. 276: 353-367 (1978)]. The chamber was constantly perfused at 0.5 ml/min with ACSF containing (in mM): NaCl 124, KCl 3, KH2PO4 1.25, MgSO4 2.5, CaCl2 3.4, NaHCO3 26, glucose 10 and L-ascorbate 2. A bipolar nichrome stimulating electrode was positioned in the dendritic layer (stratum radiatum) of the hippocampal subfield CA1 close to the border of subfield CA3.
Current pulses (0.1 msec) through the stimulating electrode activate a population of the Schaffer-commissural (SC) fibers which arise from neurons in the subdivision CA3 and terminate in synapses on the dendrites of CA1 neurons. Activation of these synapses causes them to release the transmitter glutamate. Glutamate binds to the post-synaptic AMPA receptors which then transiently open an associated ion channel and permit a sodium current to enter the postsynaptic cell. This current results in a voltage in the extracellular space (the field excitatory post-synaptic potential or field “EPSP”) which is recorded by a high impedance recording electrode positioned in the middle of the stratum radiatum of CA1.
For the experiments summarized in FIG. 1, the intensity of the stimulation current was adjusted to produce half-maximal EPSPs (typically about 1.5-2.0 mV). Paired stimulation pulses were given every 40 sec with an interpulse interval of 200 msec (see below). The field EPSPs of the second response were digitized and analyzed to determine amplitude, half-width, and response area. If the responses were stable for 15-30 minutes (baseline), test compounds were added to the perfusion lines for a period of about 15 minutes. The perfusion was then changed back to regular ACSF.
Paired-pulse stimulation was used since stimulation of the SC fibers, in part, activates interneurons which generate an inhibitory postsynaptic potential (IPSP) in the pyramidal cells of CA1. This feed forward IPSP typically sets in after the EPSP reaches its peak. It accelerates the repolarization and shortens the decay phase of the EPSP, and thus could partially mask the effects of the test compounds. One of the relevant features of the feed-forward IPSP is that it can not be reactivated for several hundred milliseconds following a stimulation pulse. This phenomenon can be employed to advantage to eliminate IPSP by delivering paired pulses separated by 200 milliseconds and using the second (“primed”) response for data analysis.
The variables set forth in the table refer to the following generic structure: […]

[3] = rat, in vivo, ip
Description: To test the ability of invention compounds to pass the blood-brain barrier, Invention Compound II was labelled with carbon-11.
Radiolabelled Invention Compound II (see the table above) is synthesized by the following scheme (wherein the numbers in parenthesis refer to the quantity of reagent used, in millimoles): [drawing 31]
wherein Ar is aryl (such as methylenedioxybenzene), Im is imidazole (thus, ImHCl is imidazole hydrochloride), and R is an alkyl or alkylene radical (so that R2NH is, for example, piperidine). ^11C-labelled CO2 is produced by cyclotron irradiation and subsequently used in the above-described synthetic scheme. The time to complete the synthesis is about […] (2 times the half-life of carbon-11). After purification of [^11C]II on C18 Sep Pak, 260 μCi was diluted with 20 mg of nonradioactive II as carrier in a 1-ml solution of 23% propylene glycol and 10% ethanol in physiologically-buffered saline in order to simulate the dosage of 100 mg/Kg that was used in behavioral studies. The final 1 ml of solution was administered to a 200 g rat under halothane anesthesia (1.4-1.7% in oxygen) by intraperitoneal (i.p.) injection.
Biodistribution of the radiotracer in the body of the rat was monitored by a positron camera (Scanditronix PC2048-15B) and the time-activity curves were constructed using a Vax 3500 (Digital Equipment Corporation) and shown in FIG. 5.

AMPA receptor [4] = format: in vivo, rat; settings: 120-180 mg/kg i.p.
Description: Stimulating and recording electrodes were placed in the hippocampus of anesthetized rats so as to activate and monitor the same synaptic responses as in the slice studies described in Example XV. […] The time constant for the decay of the EPSP is a measure for the duration of the response.
In these experiments, male Sprague-Dawley rats were anesthetized with urethane (1.7 g/kg) and body temperature was maintained at 37° C. with the use of a heat lamp. A stimulation electrode (two twisted stainless steel wires, 150 μm diameter, insulated with teflon) was placed stereotaxically in the trajectory of the Schaffer collateral (SC) pathway from CA3 to CA1 of the hippocampus (coordinates relative to Bregma: 3.5 mm P., 3.5 mm L., and 3.0-3.7 mm V). […]
Negative field potentials reflecting dendritic EPSPs evoked by SC stimulation (0.1 ms pulses, 10-100 μA) with paired pulses (inter-pulse interval of 200 msec; see methodology described in Example XV) were amplified 500 times and digitized by computer at 20 sec intervals throughout each experiment. […] Decay time constants were determined by single exponential fits to the decay phase of the synaptic response and expressed as a percent of the value obtained during the pre-injection control period.

AMPA receptors [5] = experiment: long-term potentiation (theta burst stimulation) in CA1 field of hippocampal slices; format: cell-based, rat; settings: 1.5 mM infused 15 minutes prior to theta burst stimulation; five experiments; p<0.02
Description: Long-term potentiation (LTP; a stable increase in the EPSP size of single responses after brief periods of high frequency stimulation) was elicited in the CA1 field of hippocampal slices in the absence (see FIG. 3, stippled bars, N=6) and in the presence of 1.5 mM of Invention Compound I (see FIG. 3, striped bars, N=5). In the latter case, the amount of potentiation was determined after washing out the test compound and comparing the response size with that before test compound infusion. Data presented in FIG. 3 show the percent increase in the EPSP amplitude (mean and S.D.) at 40, 60, and 90 minutes after LTP induction.
For these studies, field EPSPs in slices of hippocampus were elicited by single stimulation pulses and recorded by extracellular electrodes as described in Example II. After collecting responses every 40 seconds for 20-30 minutes to establish a baseline, LTP was induced with ten short bursts of pulses delivered to the CA3 axons; each burst consisted of four pulses separated by 10 milliseconds; the interval between the bursts was 200 milliseconds. This pattern of axon stimulation mimics a discharge rhythm observed in the hippocampus of animals engaged in learning and is referred to as the “theta burst stimulation paradigm” [see, for example, Larson and Lynch in Science Vol. 232: 985-988 (1986)]. […]

Structure (SMILES): COc1ccc(C(=O)NCCCC(=O)O)cc1 [anisoyl-GABA]
aniracetam-like effects (AMPA receptor [1]): no aniracetam-like effects

Structure (SMILES): O=C(c1ccc2ncoc2c1)N1CC=CCC1 [Compound IX, 1-(1,3-benzoxazol-6-ylcarbonyl)-1,2,3,6-tetrahydodyridine]
EC50 (AMPA receptors [2]): 4000 µM

Structure (SMILES): COc1ccc(C(=O)N2CC[C@@H](O)C2=O)cc1 [AHP, (R)-1-p-anisoyl-3-hydroxy-2-pyrrolidinone]
facilitation of AMPA receptor mediated responses in slices (AMPA receptor [1]; nootropics tested in slices): facilitate AMPA receptor mediated responses

Structure (SMILES): O=C(c1ccc2c(c1)OCO2)N1CCCCC1 [Compound II, 1-(1,3-benzodioxol-5-ylcarbonyl)-piperidine]
brain distribution relative to head excluding the cranial cavity [3]: approximately equal
brain distribution relative to heart [3]: two-thirds
brain distribution relative to liver [3]: approximately one-quarter
passage of the blood-brain barrier [3]: passes freely through the blood-brain barrier
time to plateau of brain uptake [3]: 5 to 10 min

Structure (SMILES): O=C(c1ccc2c(c1)OCCO2)N1CC=CCC1 [Compound I]
time within which the effect reversed after injection (AMPA receptor [4]): 60 to 120 min
effect on duration (decay time constant) of synaptic response (AMPA receptor [4]; anesthetized rats, n=8): rapid increase in the duration of the synaptic response
fold greater increase in the response area than aniracetam (AMPA receptors [2]; 750 μM): nine-fold
effect on synaptic response compared with aniracetam (AMPA receptors [2]; 750 μM versus aniracetam 1500 μM, 15 minute infusion): much larger effect
reversibility of effect upon washout (AMPA receptors [2]; after 15 minute infusion): fully reversible upon washout
times greater effect on response area than aniracetam at the same concentrations (AMPA receptors [2]; dosages in the range of 750 μM to 1.5 μM): 6-9 times
degree of stable long-term potentiation versus stimulation in absence of drug (AMPA receptors [5]): nearly twice as large

Now from value to compound:

EC50 (AMPA receptors [2]): 1300 µM
Structure (SMILES): O=C(c1ccc2ncoc2c1)N1CCCCC1 [Compound X, 1-(1,3-benzoxazol-6-ylcarbonyl)-piperidine]

EC50 (AMPA receptors [2]): 3000 µM
Structure (SMILES): O=C(c1ccc2ocnc2c1)N1CC=CCC1 [Compound XI, 1-(1,3-benzoxazol-5-ylcarbonyl)-1,2,3,6-tetrahydropyridine]

EC50 (AMPA receptors [2]): 5000 µM
Structure (SMILES): O=C(c1ccc2nc[nH]c2c1)N1CCCCC1 [Compound XII, 1-(1,3-benzimidazol-5-ylcarbonyl)-piperidine]

EC50 (AMPA receptors [2]): 3000 µM
Structure (SMILES): O=C(c1cccc2c1OCCO2)N1CC=CC1 [Compound VIII, 1-(1,4-benzodioxan-5-ylcarbonyl)-3-pyrroline]
